Measured values taken from patent US12662451B2, “Chemical compounds and uses thereof” (GLAXOSMITHKLINE INTELLECTUAL PROPERTY (NO.4) LIMITED, priority 2023, dated 2026).

Legend:
[1] = tested on: SW48 human colorectal cancer cells (MSI-H cancer cells); experiment: SW48 cell viability, CellTiter-Glo, 120 hours (Example B); details: Homo sapiens, SW48, 120 h, read-out: SW48 pCC50, SW48 cell viability, 120 hours incubation (converted); Table 2
Description: SW48 human colorectal cancer cells (MSI-H cancer cells) were obtained from the American Type Culture Collection and maintained in growth medium composed of RPMI-1640 supplemented with 10% fetal bovine serum. Cells were maintained in a humidified 5% CO2 incubator at 37° C. Cell dissociation was conducted using TrypLE Select to detach cells from culture flasks. Following dissociation, cells were centrifuged briefly and resuspended in assay medium RPMI-1640+10% fetal bovine serum. Black 384-well assay plates were prepared from source plates of DMSO and compounds dissolved in DMSO prior to cell dispensation. These source plates were prepared in eleven point, 3-fold serial dilutions from 10 mM stocks stored at 4° C. Compounds and DMSO controls were dispensed into assay plates at 150 nanoliters per well from source plates using Labcyte Echo 555 or Echo 655T dispensers with Column 6 and Column 18 containing DMSO only. Cells were then seeded into prepared assay plates in 50 microliters assay medium at 250 cells per well into Columns 1 thru 17 and Columns 19-24. Assay medium without cells was added to column 18 to serve as a surrogate for 100% cell cytotoxicity. Following incubation for 120 hours in a humidified 5% CO2 incubator at 37° C., cellular ATP concentration of each well was measured and used as a surrogate of cell viability. This was performed by adding 50 microliters of CellTiter-Glo reagent to each well followed by a 10-minute incubation at room temperature. Luminescence was measured on a Synergy Neo or Synergy Neo2 multimode plate reader. Compound cytotoxic response (% C) was normalized to the robust means of column 6 (Control 1, 0% Cytotoxicity) and column 18 (Control 2, 100% Cytotoxicity) and normalized % cytotoxicity (% C) calculated. % C=100−100*((Compound−Control 2)/(Control1−Control2)). These normalized data were then used to determine a 50% cytotoxic response (CC50) using 4-parameter logistic curve model 201 in Activity Base XE:
[formula] • where A=minimum asymptote (% cytotoxicity), B=maximum asymptote (% cytotoxicity), C=Log CC50 (pCC50), D=Hill slope, and x=[inhibitor], (M).

[2] = target: T1, recombinant full-length WRN protein (1-1432) (Homo sapiens, UniProt Q14191); experiment: WRN unwinding activity, fluorogenic 384-well assay (Example A); type: biochemical; details: WRN unwinding activity, 4 hr; Table 2; read-out: 4 hr UNW pIC50 (converted)
T1 construct: recombinant full-length WRN protein (1-1432)
In short: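 Read-out is end-point unwinding of a fluorophore/quencher duplex (ex 525, em 598 nm) after 60 min with 200 μM ATP and 12 nM DNA (2× stocks), EDTA stop. Compound first sat 4 h with 200 pM WRN (2× stock) in pH 8.0 Tris buffer; four-parameter fit gives pIC50.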

T1 sequence (Q14191 whole entry): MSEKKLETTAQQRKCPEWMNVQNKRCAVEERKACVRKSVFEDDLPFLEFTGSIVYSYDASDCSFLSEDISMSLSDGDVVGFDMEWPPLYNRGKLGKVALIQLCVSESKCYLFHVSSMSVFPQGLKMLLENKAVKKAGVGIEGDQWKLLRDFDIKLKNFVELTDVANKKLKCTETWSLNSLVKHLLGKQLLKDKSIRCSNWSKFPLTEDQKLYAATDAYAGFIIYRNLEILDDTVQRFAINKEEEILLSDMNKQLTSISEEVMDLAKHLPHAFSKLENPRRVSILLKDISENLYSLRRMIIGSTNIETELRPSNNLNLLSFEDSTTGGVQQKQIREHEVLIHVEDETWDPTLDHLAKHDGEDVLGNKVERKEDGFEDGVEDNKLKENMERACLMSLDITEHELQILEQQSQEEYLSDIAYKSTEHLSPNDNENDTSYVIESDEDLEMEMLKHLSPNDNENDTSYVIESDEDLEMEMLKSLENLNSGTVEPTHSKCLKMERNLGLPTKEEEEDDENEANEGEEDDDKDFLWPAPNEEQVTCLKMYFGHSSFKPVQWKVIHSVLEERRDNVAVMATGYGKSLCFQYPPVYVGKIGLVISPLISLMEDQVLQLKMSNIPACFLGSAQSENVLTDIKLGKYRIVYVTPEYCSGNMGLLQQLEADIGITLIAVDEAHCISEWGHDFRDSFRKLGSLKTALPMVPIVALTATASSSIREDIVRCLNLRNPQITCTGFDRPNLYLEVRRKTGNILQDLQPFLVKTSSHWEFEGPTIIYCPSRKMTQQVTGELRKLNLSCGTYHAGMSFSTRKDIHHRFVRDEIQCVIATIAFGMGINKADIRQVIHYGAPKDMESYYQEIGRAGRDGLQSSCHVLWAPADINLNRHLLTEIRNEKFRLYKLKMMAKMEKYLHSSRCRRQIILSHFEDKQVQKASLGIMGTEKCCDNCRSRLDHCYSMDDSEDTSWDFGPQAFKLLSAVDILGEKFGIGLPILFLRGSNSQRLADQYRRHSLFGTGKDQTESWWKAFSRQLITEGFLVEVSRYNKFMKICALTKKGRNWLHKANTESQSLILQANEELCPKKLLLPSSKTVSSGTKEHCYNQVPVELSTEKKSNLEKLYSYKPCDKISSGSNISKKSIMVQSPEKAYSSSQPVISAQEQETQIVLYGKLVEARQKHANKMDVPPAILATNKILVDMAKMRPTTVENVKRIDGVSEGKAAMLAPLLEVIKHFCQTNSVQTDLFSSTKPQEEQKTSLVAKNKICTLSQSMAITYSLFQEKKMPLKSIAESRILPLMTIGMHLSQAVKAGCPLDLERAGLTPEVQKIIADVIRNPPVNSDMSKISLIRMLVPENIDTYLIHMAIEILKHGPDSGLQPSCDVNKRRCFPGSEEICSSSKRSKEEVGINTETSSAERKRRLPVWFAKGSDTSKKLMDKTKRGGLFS

Row | Compound | CC50 [1] [µM] | IC50 [2] [nM]
1 | Cc1nc2cc(S(=O)(=O)N(C)c3ccc([C@@H]4C[C@H](OC(F)F)C[C@H](C(=O)Nc5ccc(C(F)(F)F)cc5F)[C@H]4C(=O)O)cc3)ccc2n1C (stereo in doubt) [Example 283, rel-(1R,2R,4R,6S)-4-(difluoromethoxy)-2-((2-fluoro-4-(trifluoromethyl)phenyl)carbamoyl)-6-(4-((N,1,2-trimethyl-1H-benzo[d]imidazole)-5-sulfonamido)phenyl)cyclohexane-1-carboxylic acid] | 20 | 631
2 | CC(=O)N(C)[C@@H]1C[C@H](C(=O)Nc2ccc(C(F)(F)F)cc2F)[C@@H](C(=O)O)[C@H](c2ccc(N(C)S(=O)(=O)c3ccc4c(c3)nc(C)n4C)cc2)C1 (stereo in doubt) [Example 291, rel-(1R,2R,4R,6S)-2-((2-fluoro-4-(trifluoromethyl)phenyl)carbamoyl)-4-(N-methylacetamido)-6-(4-((N,1,2-trimethyl-1H-benzo[d]imidazole)-5-sulfonamido)phenyl)cyclohexane-1-carboxylic acid] | 12.6 | 31.6
3 | Cc1nc2cc(S(=O)(=O)N(C)c3ccc([C@H]4C[C@H](N)C[C@@H](C(=O)Nc5ccc(C(F)(F)F)cc5F)[C@@H]4C(=O)O)cc3)ccc2n1C (stereo in doubt) [Example 300, rel-(1R,2R,4S,6S)-4-amino-2-((2-fluoro-4-(trifluoromethyl)phenyl)carbamoyl)-6-(4-((N,1,2-trimethyl-1H-benzo[d]imidazole)-5-sulfonamido)phenyl)cyclohexane-1-carboxylic acid] | 12.6 | 1.58
4 | Cc1nc2cc(S(=O)(=O)N(C)c3ccc([C@@H]4C[C@@H](N5CCC(F)(F)C5)C[C@H](C(=O)Nc5ccc(C(F)(F)F)cc5F)[C@H]4C(=O)O)cc3)ccc2n1C (stereo in doubt) [Example 303, rel-(1R,2R,4S,6S)-4-(3,3-difluoropyrrolidin-1-yl)-2-((2-fluoro-4-(trifluoromethyl)phenyl)carbamoyl)-6-(4-((N,1,2-trimethyl-1H-benzo[d]imidazole)-5-sulfonamido)phenyl)cyclohexane-1-carboxylic acid] | 25.1 | 3980
5 | Cc1nc2cc(S(=O)(=O)N(C)c3ccc([C@H]4C[C@H](N5CCC(F)(F)C5)C[C@@H](C(=O)Nc5ccc(C(F)(F)F)cc5F)[C@@H]4C(=O)O)cc3)ccc2n1C (stereo in doubt) [Example 304, rel-(1R,2R,4S,6S)-4-(3,3-difluoropyrrolidin-1-yl)-2-((2-fluoro-4-(trifluoromethyl)phenyl)carbamoyl)-6-(4-((N,1,2-trimethyl-1H-benzo[d]imidazole)-5-sulfonamido)phenyl)cyclohexane-1-carboxylic acid] | 12.6 | 15.8
6 | Cc1nc2cc(S(=O)(=O)N(C)c3ccc([C@@H]4C[C@H](OC(C)C)C[C@H](C(=O)Nc5ccc(C(F)(F)F)cc5F)[C@H]4C(=O)O)cc3)ccc2n1C (stereo in doubt) [Example 312, rel-(1R,2R,4R,6S)-2-((2-fluoro-4-(trifluoromethyl)phenyl)carbamoyl)-4-isopropoxy-6-(4-((N,1,2-trimethyl-1H-benzo[d]imidazole)-5-sulfonamido)phenyl)cyclohexane-1-carboxylic acid] | 12.6 | 158
7 | Cc1nc2cc(S(=O)(=O)N(C)c3ccc([C@@H]4C[C@H](OCC5CC5)C[C@H](C(=O)Nc5ccc(C(F)(F)F)cc5F)[C@H]4C(=O)O)cc3)ccc2n1C (stereo in doubt) [Example 313, rel-(1R,2R,4R,6S)-4-(cyclopropylmethoxy)-2-((2-fluoro-4-(trifluoromethyl)phenyl)carbamoyl)-6-(4-((N,1,2-trimethyl-1H-benzo[d]imidazole)-5-sulfonamido)phenyl)cyclohexane-1-carboxylic acid] | 20 | 251
